Experimental data as given in patent US8192962B2, “Processes for detecting toxic substances” (Daikin Industries, Ltd., priority 2001, dated 2012).

Test system: Metabolism protein genes
Experiment: DNA chip mRNA expression in yeast, metabolism protein genes (Table 7)
Format: cell-based, Saccharomyces cerevisiae S288C
How it was run: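 Values are treated/untreated fluorescence ratios from a whole-genome yeast DNA chip hybridized over 12 hours at 65° C with Cy3- or Cy5-labelled cDNA from poly(A) mRNA. Log-phase S288C yeast in YPD at 25° C had received a single toxic chemical for two hours, dosed to slow growth without killing.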

CCCCCCCCCCCCc1ccc(S(=O)(=O)[O-])cc1.[Na+] [(17), sodium dodecylbenzosulfonate]
The level of expressed mRNA in the presence of chemical substance/The level of expressed mRNA in the absence of chemical substance (yeast gene YAL012W): 0.9
The level of expressed mRNA in the presence of chemical substance/The level of expressed mRNA in the absence of chemical substance (yeast gene YAL038W): 1.0
level of expressed mRNA in the presence/in the absence of chemical substance (yeast gene YBR003W): 1.1
level of expressed mRNA in the presence/in the absence of chemical substance (yeast gene YBR011C): 0.8
level of expressed mRNA in the presence/in the absence of chemical substance (yeast gene YBR020W): 0.8
The level of expressed mRNA in the presence of chemical substance/The level of expressed mRNA in the absence of chemical substance (yeast gene YBR023C): 0.7
The level of expressed mRNA in the presence of chemical substance/The level of expressed mRNA in the absence of chemical substance (yeast gene YBR029C): 0.6
The level of expressed mRNA in the presence of chemical substance/The level of expressed mRNA in the absence of chemical substance (yeast gene YBR183W): 1.4
The level of expressed mRNA in the presence of chemical substance/The level of expressed mRNA in the absence of chemical substance (yeast gene YBR222C): 0.8
The level of expressed mRNA in the presence of chemical substance/The level of expressed mRNA in the absence of chemical substance (yeast gene YBR256C): 2.6
The level of expressed mRNA in the presence of chemical substance/The level of expressed mRNA in the absence of chemical substance (yeast gene YCL009C): 1.1
The level of expressed mRNA in the presence of chemical substance/The level of expressed mRNA in the absence of chemical substance (yeast gene YCL064C): 0.3
level of expressed mRNA in the presence/in the absence of chemical substance (yeast gene YCR010C): 1.9
level of expressed mRNA in the presence/in the absence of chemical substance (yeast gene YCR034W): 0.9
The level of expressed mRNA in the presence of chemical substance/The level of expressed mRNA in the absence of chemical substance (yeast gene YCR048W): 1.2
The level of expressed mRNA in the presence of chemical substance/The level of expressed mRNA in the absence of chemical substance (yeast gene YCR098C): 1.7
The level of expressed mRNA in the presence of chemical substance/The level of expressed mRNA in the absence of chemical substance (yeast gene YDR019C): 1.2
level of expressed mRNA in the presence/in the absence of chemical substance (yeast gene YDR050C): 1.1
level of expressed mRNA in the presence/in the absence of chemical substance (yeast gene YDR073W): 1.8
level of expressed mRNA in the presence/in the absence of chemical substance (yeast gene YDR123C): 1.3
level of expressed mRNA in the presence/in the absence of chemical substance (yeast gene YDR178W): 1.2
level of expressed mRNA in the presence/in the absence of chemical substance (yeast gene YDR277C): 1.2
level of expressed mRNA in the presence/in the absence of chemical substance (yeast gene YDR284C): 1.5
level of expressed mRNA in the presence/in the absence of chemical substance (yeast gene YDR345C): 1.3
The level of expressed mRNA in the presence of chemical substance/The level of expressed mRNA in the absence of chemical substance (yeast gene YDR380W): 0.8
level of expressed mRNA in the presence/in the absence of chemical substance (yeast gene YDR400W): 1.1
level of expressed mRNA in the presence/in the absence of chemical substance (yeast gene YDR408C): 1.1
level of expressed mRNA in the presence/in the absence of chemical substance (yeast gene YDR483W): 1.2
The level of expressed mRNA in the presence of chemical substance/The level of expressed mRNA in the absence of chemical substance (yeast gene YDR497C): 1.6
The level of expressed mRNA in the presence of chemical substance/The level of expressed mRNA in the absence of chemical substance (yeast gene YDR502C): 0.9
The level of expressed mRNA in the presence of chemical substance/The level of expressed mRNA in the absence of chemical substance (yeast gene YDR516C): 1.1
level of expressed mRNA in the presence/in the absence of chemical substance (yeast gene YEL063C): 0.7
level of expressed mRNA in the presence/in the absence of chemical substance (yeast gene YER015W): 1.6
The level of expressed mRNA in the presence of chemical substance/The level of expressed mRNA in the absence of chemical substance (yeast gene YER026C): 1.7
The level of expressed mRNA in the presence of chemical substance/The level of expressed mRNA in the absence of chemical substance (yeast gene YER053C): 1.2
The level of expressed mRNA in the presence of chemical substance/The level of expressed mRNA in the absence of chemical substance (yeast gene YER069W): 1.1
level of expressed mRNA in the presence/in the absence of chemical substance (yeast gene YER081W): 1.1
The level of expressed mRNA in the presence of chemical substance/The level of expressed mRNA in the absence of chemical substance (yeast gene YER096W): 1.0
level of expressed mRNA in the presence/in the absence of chemical substance (yeast gene YER120W): 1.2
The level of expressed mRNA in the presence of chemical substance/The level of expressed mRNA in the absence of chemical substance (yeast gene YER178W): 1.1
level of expressed mRNA in the presence/in the absence of chemical substance (yeast gene YFL011W): 0.8
The level of expressed mRNA in the presence of chemical substance/The level of expressed mRNA in the absence of chemical substance (yeast gene YFL014W): 1.5
The level of expressed mRNA in the presence of chemical substance/The level of expressed mRNA in the absence of chemical substance (yeast gene YFL030W): 1.0
The level of expressed mRNA in the presence of chemical substance/The level of expressed mRNA in the absence of chemical substance (yeast gene YFL031W): 1.2
The level of expressed mRNA in the presence of chemical substance/The level of expressed mRNA in the absence of chemical substance (yeast gene YFL056C): 1.0
The level of expressed mRNA in the presence of chemical substance/The level of expressed mRNA in the absence of chemical substance (yeast gene YFL057C): 1.6
The level of expressed mRNA in the presence of chemical substance/The level of expressed mRNA in the absence of chemical substance (yeast gene YFR047C): 1.5
level of expressed mRNA in the presence/in the absence of chemical substance (yeast gene YGL012W): 0.9
The level of expressed mRNA in the presence of chemical substance/The level of expressed mRNA in the absence of chemical substance (yeast gene YGL022W): 0.9
level of expressed mRNA in the presence/in the absence of chemical substance (yeast gene YGL115W): 0.8
The level of expressed mRNA in the presence of chemical substance/The level of expressed mRNA in the absence of chemical substance (yeast gene YGL126W): 0.9
level of expressed mRNA in the presence/in the absence of chemical substance (yeast gene YGL205W): 3.9
The level of expressed mRNA in the presence of chemical substance/The level of expressed mRNA in the absence of chemical substance (yeast gene YGL209W): 1.1
The level of expressed mRNA in the presence of chemical substance/The level of expressed mRNA in the absence of chemical substance (yeast gene YGL248W): 1.1
The level of expressed mRNA in the presence of chemical substance/The level of expressed mRNA in the absence of chemical substance (yeast gene YGR037C): 1.4
The level of expressed mRNA in the presence of chemical substance/The level of expressed mRNA in the absence of chemical substance (yeast gene YGR055W): 0.7
level of expressed mRNA in the presence/in the absence of chemical substance (yeast gene YGR096W): 0.8
level of expressed mRNA in the presence/in the absence of chemical substance (yeast gene YGR191W): 0.8
The level of expressed mRNA in the presence of chemical substance/The level of expressed mRNA in the absence of chemical substance (yeast gene YGR194C): 1.1
level of expressed mRNA in the presence/in the absence of chemical substance (yeast gene YGR204W): 1.0
The level of expressed mRNA in the presence of chemical substance/The level of expressed mRNA in the absence of chemical substance (yeast gene YGR256W): 1.1
The level of expressed mRNA in the presence of chemical substance/The level of expressed mRNA in the absence of chemical substance (yeast gene YGR282C): 1.1
level of expressed mRNA in the presence/in the absence of chemical substance (yeast gene YGR288W): 1.2
level of expressed mRNA in the presence/in the absence of chemical substance (yeast gene YHR025W): 1.0
The level of expressed mRNA in the presence of chemical substance/The level of expressed mRNA in the absence of chemical substance (yeast gene YHR111W): 1.1
level of expressed mRNA in the presence/in the absence of chemical substance (yeast gene YHR123W): 1.1
The level of expressed mRNA in the presence of chemical substance/The level of expressed mRNA in the absence of chemical substance (yeast gene YHR137W): 0.8
The level of expressed mRNA in the presence of chemical substance/The level of expressed mRNA in the absence of chemical substance (yeast gene YHR174W): 1.0
The level of expressed mRNA in the presence of chemical substance/The level of expressed mRNA in the absence of chemical substance (yeast gene YHR176W): 1.4
level of expressed mRNA in the presence/in the absence of chemical substance (yeast gene YHR210C): 1.4
level of expressed mRNA in the presence/in the absence of chemical substance (yeast gene YIL006W): 0.8
The level of expressed mRNA in the presence of chemical substance/The level of expressed mRNA in the absence of chemical substance (yeast gene YIL045W): 1.1
The level of expressed mRNA in the presence of chemical substance/The level of expressed mRNA in the absence of chemical substance (yeast gene YIL107C): 1.2
The level of expressed mRNA in the presence of chemical substance/The level of expressed mRNA in the absence of chemical substance (yeast gene YIL154C): 1.2
The level of expressed mRNA in the presence of chemical substance/The level of expressed mRNA in the absence of chemical substance (yeast gene YIL155C): 1.1
The level of expressed mRNA in the presence of chemical substance/The level of expressed mRNA in the absence of chemical substance (yeast gene YIR034C): 1.0
The level of expressed mRNA in the presence of chemical substance/The level of expressed mRNA in the absence of chemical substance (yeast gene YIR036C): 1.5
The level of expressed mRNA in the presence of chemical substance/The level of expressed mRNA in the absence of chemical substance (yeast gene YJL031C): 1.2
The level of expressed mRNA in the presence of chemical substance/The level of expressed mRNA in the absence of chemical substance (yeast gene YJL068C): 1.4
The level of expressed mRNA in the presence of chemical substance/The level of expressed mRNA in the absence of chemical substance (yeast gene YJL088W): 1.4
The level of expressed mRNA in the presence of chemical substance/The level of expressed mRNA in the absence of chemical substance (yeast gene YJL099W): 1.2
level of expressed mRNA in the presence/in the absence of chemical substance (yeast gene YJL121C): 1.1
level of expressed mRNA in the presence/in the absence of chemical substance (yeast gene YJL167W): 1.4
The level of expressed mRNA in the presence of chemical substance/The level of expressed mRNA in the absence of chemical substance (yeast gene YJL172W): 1.8
level of expressed mRNA in the presence/in the absence of chemical substance (yeast gene YJL216C): 1.2
The level of expressed mRNA in the presence of chemical substance/The level of expressed mRNA in the absence of chemical substance (yeast gene YJL219W): 1.6
level of expressed mRNA in the presence/in the absence of chemical substance (yeast gene YJR077C): 1.0
The level of expressed mRNA in the presence of chemical substance/The level of expressed mRNA in the absence of chemical substance (yeast gene YJR137C): 0.9
level of expressed mRNA in the presence/in the absence of chemical substance (yeast gene YJR143C): 0.7
The level of expressed mRNA in the presence of chemical substance/The level of expressed mRNA in the absence of chemical substance (yeast gene YJR148W): 1.3
